{"source": "patent US20120184504A1", "about": "“\"The Use of a PAR-1 Antagonist in Combination with a P2Y12 ADP Receptor Antagonist for Inhibition of Thrombosis\"” (priority 2009, published 2012)", "type_in_all_cases": "in vivo, cynomolgus monkeys", "key": {"[1]": {"system": "platelet aggregation induced by ADP (10 μM)", "test": "Ex vivo whole blood platelet aggregation induced by ADP", "protocol": "(§1) Animals instrumented to produce CFRs were administered SCH 602539, cangrelor, or a combination of SCH 602539 and cangrelor. The dosing regimens of SCH 602539 were selected to provide a broad range of inhibition of platelet aggregation induced by 1 μM thrombin receptor agonist peptide (TRAP), whereas the doses of cangrelor were selected to achieve 50%-60% inhibition of platelet aggregation induced by 10 μM ADP (the degree of inhibition obtained with clopidogrel). Group 1 received drug vehicle only (20% hydroxypropyl betacyclodextran or saline, 2 mL i.v.). Group 2 received SCH 602539 dissolved in 20% hydroxypropyl betacyclodextran administered as sequential i.v. boluses of 0.1, 0.3, or 1 mg/kg, at 30-minute intervals. Group 3 received cangrelor dissolved in saline and administered as an intravenous infusion of 0.1, 0.2, or 0.3 μg/kg/min for 30 minutes each. Group 4 received a combination of SCH 602539 bolus plus cangrelor infusion (at respective doses of: 1) 0.05 mg/kg+0.05 μg/kg/min; 2) 0.1 mg/kg+0.1 μg/kg/min; and 3) 0.15 mg/kg+0.1 μg/kg/min. The three dose regimens within each group were administered sequentially over the consecutive 30-minute periods coinciding with the re-induction of endothelial injury. Study drug or vehicle was administered after stable CFRs were achieved, and upon the completion of a 30-minute baseline CFR collection period, drug(s) or vehicle were administered incrementally (every 30 minutes) either as a bolus (SCH 602539) or as an infusion (cangrelor), and their effects on CFRs were monitored in the next three 30-minute observation periods. Blood samples (3 mL) were collected from the femoral arterial catheter at the end of each 30-minute observation period for assessment of ex vivo platelet aggregation and coagulation parameters.\n(§2) Platelet aggregation studies were performed ex viva on blood samples obtained from the monkeys subjected to the Folts model, using a ChronoLog whole blood aggregometer (Model 540VS, Havertown, Pa.). Briefly, 0.5 mL of blood was incubated with 0.5 mL of normal saline at 37° C. in a cuvette containing a stir bar for 2 minutes. Platelet agonists used in this study included TRAP (3 μM), ADP (10 μM), the thromboxane A2 mimetic U46619 (10 μM), and collagen (3 μg/mL). Platelet aggregation was monitored for 5 minutes following the addition of the agonist. The peak aggregation response was recorded in ohms. In addition, standard coagulation parameters, including prothrombin time (PT), activated partial thromboplastin time (APTT), and activated clotting time (ACT), were assessed."}, "[2]": {"system": "platelet aggregation induced by collagen (3 μg/mL)", "test": "Ex vivo whole blood platelet aggregation induced by collagen", "protocol": "as §1, §2"}, "[3]": {"test": "Activated clotting time (ACT) in whole blood, Folts model animals", "settings": "for ACT: i.v.; for effect on ACT: tested doses", "protocol": "as §1, §2\nPT and APTT assays were performed with plasma, while the ACT assay was performed with whole blood. Data are presented as mean±SEM (n=5-6/group)."}, "[4]": {"system": "platelet aggregation induced by thromboxane A2 mimetic U46619 (10 μM)", "test": "Ex vivo whole blood platelet aggregation induced by U46619", "protocol": "as §1, §2"}, "[5]": {"settings": "SCH 602539 0.3 mg/kg and 1 mg/kg"}, "[6]": {"settings": "cangrelor 0.2 and 0.3 μg/kg/min"}}}
{"smiles": "CCOC(=O)N[C@@H]1CC[C@@H]2[C@@H](C1)C[C@H]1C(=O)O[C@H](C)[C@H]1[C@H]2/C=C/c1ccc(-c2ccccn2)cn1", "note": "[SCH 602539]", "values": [{"measurement": "Aggregation, ADP", "setting": "[1]; SCH 602539 0.1 mg/kg, baseline 15 ± 3", "value": "14 ± 2", "unit": "ohms"}, {"measurement": "effect on aggregation induced by 10 μM ADP", "setting": "[1]; [5]", "value": "did not affect"}, {"measurement": "Aggregation, ADP", "setting": "[1]; SCH 602539 0.3 mg/kg, baseline 15 ± 3", "value": "16 ± 3", "unit": "ohms"}, {"measurement": "Aggregation, ADP", "setting": "[1]; SCH 602539 1.0 mg/kg, baseline 15 ± 3", "value": "13 ± 4", "unit": "ohms"}, {"measurement": "Aggregation, Collagen", "setting": "[2]; SCH 602539 0.1 mg/kg, baseline 27 ± 4", "value": "26 ± 2", "unit": "ohms"}, {"measurement": "effect on aggregation induced by 3 μg/mL collagen", "setting": "[2]; [5]", "value": "did not affect"}, {"measurement": "Aggregation, Collagen", "setting": "[2]; SCH 602539 0.3 mg/kg, baseline 27 ± 4", "value": "24 ± 3", "unit": "ohms"}, {"measurement": "Aggregation, Collagen", "setting": "[2]; SCH 602539 1.0 mg/kg, baseline 27 ± 4", "value": "29 ± 5", "unit": "ohms"}, {"measurement": "ACT", "setting": "[3]; SCH 602539 0.1 mg/kg, bolus, whole blood, baseline 79 ± 5.9", "value": "73 ± 2.2", "unit": "s"}, {"measurement": "ACT", "setting": "[3]; SCH 602539 0.3 mg/kg, bolus, baseline 79 ± 5.9", "value": "71 ± 4.4", "unit": "s"}, {"measurement": "ACT", "setting": "[3]; SCH 602539 1.0 mg/kg, bolus, baseline 79 ± 5.9", "value": "67 ± 4.9", "unit": "s"}, {"measurement": "effect on ACT", "setting": "[3]", "value": "no effect"}, {"measurement": "Aggregation, U46619", "setting": "[4]; SCH 602539 0.1 mg/kg, baseline 20 ± 5", "value": "17 ± 3", "unit": "ohms"}, {"measurement": "effect on aggregation induced by 10 μM U46619", "setting": "[4]; [5]", "value": "did not affect"}, {"measurement": "Aggregation, U46619", "setting": "[4]; SCH 602539 0.3 mg/kg, baseline 20 ± 5", "value": "19 ± 4", "unit": "ohms"}, {"measurement": "Aggregation, U46619", "setting": "[4]; SCH 602539 1.0 mg/kg, baseline 20 ± 5", "value": "21 ± 5", "unit": "ohms"}]}
{"smiles": "CSCCNc1nc(SCCC(F)(F)F)nc2c1ncn2[C@@H]1O[C@H](COP(=O)(O)OP(=O)(O)C(Cl)(Cl)P(=O)(O)O)[C@@H](O)[C@H]1O", "note": "[Cangrelor]", "values": [{"measurement": "Aggregation, ADP", "setting": "[1]; Cangrelor 0.1 μg/kg/min, baseline 14 ± 3", "value": "10 ± 2", "unit": "ohms"}, {"measurement": "Aggregation, ADP", "setting": "[1]; Cangrelor 0.2 μg/kg/min, baseline 14 ± 3", "value": "7 ± 1", "unit": "ohms"}, {"measurement": "Aggregation, ADP", "setting": "[1]; Cangrelor 0.3 μg/kg/min, baseline 14 ± 3", "value": "6 ± 1", "unit": "ohms"}, {"measurement": "Aggregation, Collagen", "setting": "[2]; Cangrelor 0.1 μg/kg/min, baseline 24 ± 3", "value": "20 ± 3", "unit": "ohms"}, {"measurement": "Aggregation, Collagen", "setting": "[2]; Cangrelor 0.2 μg/kg/min, baseline 24 ± 3", "value": "20 ± 4", "unit": "ohms"}, {"measurement": "Aggregation, Collagen", "setting": "[2]; Cangrelor 0.3 μg/kg/min, baseline 24 ± 3", "value": "20 ± 3", "unit": "ohms"}, {"measurement": "effect on aggregation stimulated by 3 μg/mL collagen", "setting": "[2]; [6]", "value": "did not interfere"}, {"measurement": "inhibition of aggregation induced by collagen (discussion)", "setting": "[2]; cangrelor, tested doses", "value": "modest numeric inhibition"}, {"measurement": "ACT", "setting": "[3]; Cangrelor 0.1 μg/kg/min × 30 min, whole blood, baseline 77 ± 3.7", "value": "79 ± 2.3", "unit": "s"}, {"measurement": "ACT", "setting": "[3]; Cangrelor 0.2 μg/kg/min × 30 min, baseline 77 ± 3.7", "value": "76 ± 1.7", "unit": "s"}, {"measurement": "ACT", "setting": "[3]; Cangrelor 0.3 μg/kg/min × 30 min, baseline 77 ± 3.7", "value": "74 ± 3.5", "unit": "s"}, {"measurement": "effect on ACT", "setting": "[3]", "value": "no effect"}, {"measurement": "Aggregation, U46619", "setting": "[4]; Cangrelor 0.1 μg/kg/min, baseline 15 ± 3", "value": "12 ± 3", "unit": "ohms"}, {"measurement": "Aggregation, U46619", "setting": "[4]; Cangrelor 0.2 μg/kg/min, baseline 15 ± 3", "value": "10 ± 4", "unit": "ohms"}, {"measurement": "Aggregation, U46619", "setting": "[4]; Cangrelor 0.3 μg/kg/min, baseline 15 ± 3", "value": "10 ± 4", "unit": "ohms"}, {"measurement": "effect on aggregation stimulated by 10 μM U46619", "setting": "[4]; [6]", "value": "did not interfere"}]}
